How the values were obtained:
[1] = Surface pressure and surface potential isotherms and Brewster angle microscopy at the air-buffer interface; format: physicochemical; conditions: 35 °C; for spreading / monolayer formation on the aqueous surface: PBS
Description: (§1) The lipid species were either synthesized as described above or obtained from commercial sources (e.g. Nu-Check-Prep, Elysian, MN) and studied on their own at first. A wide range of lipid mixtures were prepared by weighing selected compounds at specific ratios and further dilution in chloroform to obtain selected concentrations. A 2 mM concentration of the corresponding mixtures was used in the surface potential and pressure measurements and a 5 mM concentration in the evaporation resistance measurements discussed herein.
The lipid mixtures dissolved in chloroform or the formulations were spread onto the air-buffer interface of either a KSV minitrough (Helsinki, Finland) or a KSV large trough which was filled with PBS buffer. Chloroform was allowed to evaporate for 3 min before starting measurements. The surface pressure was measured using a Wilhelmy plate, the surface potential was measured using a KSV surface potential sensor (Espoo, Finland) and Brewster angle microscopy images were captured using a KSV NIMA microBAM (Espoo, Finland) instrument. The films were compressed at a constant rate of 5 or 10 mm/min and the subphase temperature was kept at 35±1° C. The measurements were performed in an acrylic box under an ozone-free atmosphere to prevent undesired oxidation. An ozone-free atmosphere was generated by passing dry air through ODS-3P ozone destruct unit (Ozone solutions, Hull, Iowa) at a rate of 76 l/min within the enclosure.
The organizational behavior of FAHFA/OAHFA and wax ester mixtures were investigated by measuring surface pressure and surface potential isotherms, and, imaging the monolayer structure with a Brewster angle microscope. A phosphate buffered saline (PBS) solution was used as an in vitro model of the ocular surface and the measurements were conducted at physiological temperature (35° C.). With this model system, it is possible to accurately simulate the conditions residing on the ocular surface and the changes occurring during a blink of the eye, both in terms of surface pressure and the capabilities of the monolayer to respread over many compression-expansion cycles. Thus, the study protocol provides the essential information required for evaluating the suitability of the composition in the intended applications. More details on the study protocol can be found in the inventors' previous publications on the topic (Paananen, Ekholm et. al. in Langmuir 2019, Ocul. Surf. 2020, J. Org. Chem. 2021).

[2] = Evaporation resistance of lipid films (modified Langmuir-Schaefer desiccant cartridge method); format: physicochemical; conditions: lipid film on PBS, 35 °C; compressed to Mma 2-40 Å^2/molecule
Description: as §1
Evaporation resistance is a property of the lipid film residing on top or above an aqueous surface, independent of the measurement method and conditions of the measurement. […] Evaporation resistance of the lipid film can be determined, for example, by measuring the evaporative flux from the aqueous surface without the lipid layer, Jw, and with a lipid film present, Jf. […] The lipid film evaporation resistance can be expressed as a function of measured quantities as rm=Δc(1/Jf−1/Jw).
In this example, the evaporation resistance was determined according to the method originally developed by Langmuir et al. (Langmuir, I. and Schaefer, V., J. 1943, J. Franklin Inst., Vol. 235, 119-162) although with certain modifications (as set out in Bland et al., Langmuir, 2019, 35, 3545-3552 (Supp. Info.). […]

Compound	spreading / monolayer formation on the aqueous surface [1]	mean molecular area at surface pressure lift-off ([1]; pure lipid on PBS)	melting point	maximum evaporation resistance [2]	surface pressure at transition to a solid monolayer ([1]; pure lipid on PBS)
CCCCCCCC/C=C\CCCCCCCC(=O)OCCCCCCCCCCCCCCCCCCCC [AO, arachidyl oleate]	form liquid monolayers upon spreading	70 Å^2/molecule	–	–	–
CCCCCCCC/C=C\CCCCCCCC(=O)OCCCCCCCCCCCCCCCCCCCCCC [BO, behenyl oleate]	did not spread on the aqueous surface but formed solid aggregates instead	–	–	–	–
CCCCCCCC/C=C\CCCCCCCC(=O)OCCCCCCCCCCCCCCCCCCCCCCCC(C)C [Example 5, 24-methylpentacosyl oleate]	–	–	36 to 37.5 °C	–	–
CCCCCCCC/C=C\CCCCCCCC(=O)OCCCCCCCCCCCCCCCCCCCC(=O)O [Example 20-OAHFA, 20-(oleoyloxy)eicosanoic acid]	form liquid monolayers upon spreading	140 Å^2/molecule	–	3 to 5 s/cm	2 mN/m
